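Assay format: 96-well plates, 48-hour exposure. The concentration for full growth arrest is given as TGI.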
Assays:
Assay in all cases: NCI-60 cell line screen, 48 h
[1] = system: 786-0 renal
[2] = system: A498 renal
[3] = system: A549 NSCLC
[4] = system: ACHN renal
[5] = system: BT-549 breast
[6] = system: CAKI-1 renal
[7] = system: CCRF-CEM leukemia
[8] = system: COLO 205 colon
[9] = system: DU-145 prostate
[10] = system: EKVX NSCLC
[11] = system: HCT-116 colon
[12] = system: HCT-15 colon
[13] = system: HL-60(TB) leukemia
[14] = system: HOP-62 NSCLC
[15] = system: HOP-92 NSCLC
[16] = system: HS 578T breast
[17] = system: HT29 colon
[18] = system: IGROV1 ovarian
[19] = system: K-562 leukemia
[20] = system: KM12 colon
[21] = system: LOX IMVI melanoma
[22] = system: M14 melanoma
[23] = system: MALME-3M melanoma
[24] = system: MDA-MB-231 breast
[25] = system: MDA-MB-435
[26] = system: MDA-N
[27] = system: MOLT-4 leukemia
[28] = system: NCI-H226 lung
[29] = system: NCI-H23 lung
[30] = system: NCI-H460 lung
[31] = system: NCI-H522 lung
[32] = system: NCI/ADR-RES ovarian
[33] = system: OVCAR-3 ovarian
[34] = system: OVCAR-5 ovarian
[35] = system: OVCAR-8 ovarian
[36] = system: PC-3 prostate
[37] = system: RPMI-8226 leukemia
[38] = system: RXF 393 renal
[39] = system: SF-268 CNS
[40] = system: SF-295 CNS
[41] = system: SF-539 CNS
[42] = system: SK-MEL-2 melanoma
[43] = system: SK-MEL-28 melanoma
[44] = system: SK-MEL-5 melanoma
[45] = system: SK-OV-3 ovarian
[46] = system: SN12C renal
[47] = system: SNB-19 CNS
[48] = system: SNB-75 CNS
[49] = system: SW-620 colon
[50] = system: T-47D breast
[51] = system: TK-10 renal
[52] = system: U251 CNS
[53] = system: UACC-257 melanoma
[54] = system: UACC-62 melanoma
[55] = system: UO-31 renal
[56] = system: MCF7 breast
[57] = system: OVCAR-4 ovarian
[58] = system: SR leukemia
[59] = system: HCC-2998 colon

Compound: CC1=NNC(=O)C1C1C=C(c2c[nH]c3ccccc23)OC1=O (stereo not drawn)
- TGI [1]: > 100 µM
- TGI [2]: > 100 µM
- TGI [3]: > 100 µM
- TGI [4]: > 100 µM
- TGI [5]: > 100 µM
- TGI [6]: > 100 µM
- TGI [7]: > 100 µM
- TGI [8]: > 100 µM
- TGI [9]: > 100 µM
- TGI [10]: > 100 µM
- TGI [11]: > 100 µM
- TGI [12]: > 100 µM
- TGI [13]: > 100 µM
- TGI [14]: > 100 µM
- TGI [15]: > 100 µM
- TGI [16]: > 100 µM
- TGI [17]: > 100 µM
- TGI [18]: > 100 µM
- TGI [19]: > 100 µM
- TGI [20]: > 100 µM
- TGI [21]: > 100 µM
- TGI [22]: > 100 µM
- TGI [23]: > 100 µM
- TGI [24]: > 100 µM
- TGI [25]: > 100 µM
- TGI [26]: > 100 µM
- TGI [27]: > 100 µM
- TGI [28]: > 100 µM
- TGI [29]: > 100 µM
- TGI [30]: > 100 µM
- TGI [31]: > 100 µM
- TGI [32]: > 100 µM
- TGI [33]: > 100 µM
- TGI [34]: > 100 µM
- TGI [35]: > 100 µM
- TGI [36]: > 100 µM
- TGI [37]: > 100 µM
- TGI [38]: > 100 µM
- TGI [39]: > 100 µM
- TGI [40]: > 100 µM
- TGI [41]: > 100 µM
- TGI [42]: > 100 µM
- TGI [43]: > 100 µM
- TGI [44]: > 100 µM
- TGI [45]: > 100 µM
- TGI [46]: > 100 µM
- TGI [47]: > 100 µM
- TGI [48]: > 100 µM
- TGI [49]: > 100 µM
- TGI [50]: > 100 µM
- TGI [51]: > 100 µM
- TGI [52]: > 100 µM
- TGI [53]: > 100 µM
- TGI [54]: > 100 µM
- TGI [55]: > 100 µM

Compound: COC(=O)[C@H](C)N(C)C(=O)[C@H](C)N1[C@@H](c2ccccc2)COC1(C)C
- TGI [1]: > 100 µM
- TGI [2]: > 100 µM
- TGI [3]: > 100 µM
- TGI [4]: > 100 µM
- TGI [5]: > 100 µM
- TGI [6]: > 100 µM
- TGI [7]: > 100 µM
- TGI [8]: > 100 µM
- TGI [10]: > 100 µM
- TGI [11]: > 100 µM
- TGI [12]: > 100 µM
- TGI [13]: > 100 µM
- TGI [14]: > 100 µM
- TGI [15]: > 100 µM
- TGI [16]: > 100 µM
- TGI [17]: > 100 µM
- TGI [18]: > 100 µM
- TGI [19]: > 100 µM
- TGI [20]: > 100 µM
- TGI [21]: > 100 µM
- TGI [22]: > 100 µM
- TGI [23]: > 100 µM
- TGI [56]: > 100 µM
- TGI [24]: > 100 µM
- TGI [25]: > 100 µM
- TGI [26]: > 100 µM
- TGI [27]: > 100 µM
- TGI [28]: > 100 µM
- TGI [29]: > 100 µM
- TGI [30]: > 100 µM
- TGI [31]: > 100 µM
- TGI [32]: > 100 µM
- TGI [33]: > 100 µM
- TGI [57]: > 100 µM
- TGI [34]: > 100 µM
- TGI [35]: > 100 µM
- TGI [36]: > 100 µM
- TGI [37]: > 100 µM
- TGI [38]: > 100 µM
- TGI [39]: > 100 µM
- TGI [40]: > 100 µM
- TGI [41]: > 100 µM
- TGI [42]: > 100 µM
- TGI [43]: > 100 µM
- TGI [44]: > 100 µM
- TGI [45]: > 100 µM
- TGI [47]: > 100 µM
- TGI [48]: > 100 µM
- TGI [58]: > 100 µM
- TGI [49]: > 100 µM
- TGI [50]: > 100 µM
- TGI [51]: > 100 µM
- TGI [52]: > 100 µM
- TGI [53]: > 100 µM
- TGI [54]: > 100 µM
- TGI [55]: > 100 µM

Compound: CCOc1nc2sc3c(c2c(=O)n1CCSSCCn1c(OCC)nc2sc4c(c2c1=O)CCCC4)CCCC3
- TGI [1]: > 100 µM
- TGI [2]: > 100 µM
- TGI [3]: > 100 µM
- TGI [4]: > 100 µM
- TGI [5]: > 100 µM
- TGI [6]: > 100 µM
- TGI [8]: > 100 µM
- TGI [9]: > 100 µM
- TGI [10]: > 100 µM
- TGI [59]: > 100 µM
- TGI [11]: > 100 µM
- TGI [12]: > 100 µM
- TGI [14]: > 100 µM
- TGI [16]: > 100 µM
- TGI [17]: > 100 µM
- TGI [18]: > 100 µM
- TGI [19]: > 100 µM
- TGI [20]: > 100 µM
- TGI [21]: > 100 µM
- TGI [22]: > 100 µM
- TGI [23]: > 100 µM
- TGI [56]: > 100 µM
- TGI [24]: > 100 µM
- TGI [25]: > 100 µM
- TGI [26]: > 100 µM
- TGI [27]: > 100 µM
- TGI [28]: > 100 µM
- TGI [29]: > 100 µM
- TGI [30]: > 100 µM
- TGI [32]: > 100 µM
- TGI [33]: > 100 µM
- TGI [57]: > 100 µM
- TGI [34]: > 100 µM
- TGI [35]: > 100 µM
- TGI [36]: > 100 µM
- TGI [37]: > 100 µM
- TGI [39]: > 100 µM
- TGI [40]: > 100 µM
- TGI [41]: > 100 µM
- TGI [42]: > 100 µM
- TGI [43]: > 100 µM
- TGI [44]: > 100 µM
- TGI [45]: > 100 µM
- TGI [46]: > 100 µM
- TGI [47]: > 100 µM
- TGI [48]: > 100 µM
- TGI [58]: > 100 µM
- TGI [49]: > 100 µM
- TGI [50]: > 100 µM
- TGI [51]: > 100 µM
- TGI [52]: > 100 µM
- TGI [53]: > 100 µM
- TGI [54]: > 100 µM
- TGI [55]: > 100 µM

Compound: c1ccc(/C(=N\Nc2nc3ccccc3s2)c2ccccn2)cc1
- TGI [1]: 24.4 µM
- TGI [2]: 70.1 µM
- TGI [3]: > 100 µM
- TGI [4]: > 28.8 µM
- TGI [5]: > 100 µM
- TGI [6]: > 100 µM
- TGI [7]: 1.07 µM
- TGI [8]: 16.9 µM
- TGI [9]: 30 µM
- TGI [10]: 15.4 µM
- TGI [59]: 46 µM
- TGI [11]: 9.16 µM
- TGI [12]: > 100 µM
- TGI [13]: 6.54 µM
- TGI [14]: 97.8 µM
- TGI [15]: > 71.6 µM
- TGI [16]: > 88.9 µM
- TGI [17]: 47.1 µM
- TGI [18]: > 48.2 µM
- TGI [19]: > 44.1 µM
- TGI [20]: > 100 µM
- TGI [21]: 42.4 µM
- TGI [22]: 22.6 µM
- TGI [23]: 34.4 µM
- TGI [56]: > 72.5 µM
- TGI [24]: > 100 µM
- TGI [25]: > 100 µM
- TGI [26]: > 100 µM
- TGI [27]: 4.17 µM
- TGI [28]: 29.7 µM
- TGI [29]: > 100 µM
- TGI [30]: 12.8 µM
- TGI [31]: 36.7 µM
- TGI [32]: > 100 µM
- TGI [33]: 1.72 µM
- TGI [57]: > 100 µM
- TGI [34]: > 51.4 µM
- TGI [35]: > 100 µM
- TGI [36]: > 53.2 µM
- TGI [37]: 27.9 µM
- TGI [38]: 23.3 µM
- TGI [39]: > 50.4 µM
- TGI [40]: > 100 µM
- TGI [41]: > 56.6 µM
- TGI [42]: > 61.8 µM
- TGI [43]: > 100 µM
- TGI [44]: 7.91 µM
- TGI [45]: 98.6 µM
- TGI [46]: 39.8 µM
- TGI [47]: > 100 µM
- TGI [48]: > 100 µM
- TGI [49]: > 100 µM
- TGI [50]: 52.5 µM
- TGI [51]: 37.5 µM
- TGI [52]: > 40.9 µM
- TGI [53]: > 25.9 µM
- TGI [54]: 27.5 µM
- TGI [55]: 16.3 µM
